# In paper PMC12040169 (PLOS Biology, 2025):
# Test: in vitro
# Details: human, hela cells, % viability
row,SMILES,"viability at 28.5 h, 10 µM [%]"
1,COc1ccc(C(=O)Nc2nc3ccc(OC)cc3s2)cc1 [CBK287306],96.5
2,Cc1c(S(=O)(=O)Nc2nnn[nH]2)sc2ccc(Cl)cc12 [CBK062392],91.7
3,Cc1ccc2nc(NCc3ccco3)c(/C=N/Cc3ccco3)c(=O)n2c1 [CBK220353],80.4
4,CCn1c(SCC(=O)Nc2ccc(C#N)cc2)nnc1-c1ccncc1 [CBK270102],96.4
5,COc1ccccc1NC(=O)C1=C(C)NC(SCC(=O)Nc2ccc(C(=O)O)cc2)=C(C#N)C1c1cccs1 (stereo not shown) [CBK296139],102
6,COCC(C)NC(=O)CCn1ccc2ccncc21 (stereo not shown) [CBK285172],93.8
7,Cc1csc2nc(CN3CCN(C(=O)c4ccccc4)CC3)cc(=O)n12 [CBK305019],110
8,Cc1cc(F)ccc1NC(=O)c1n[nH]cc1Cl [CBK288020],92.4
9,CC1(C)CCN(Cc2ccccc2)C1CC#N (stereo not shown) [CBK006978C],102
10,COc1cc(CN2CCC3(CC2)CN(S(C)(=O)=O)c2ccccc23)cc(OC)c1OC [CBK126669],100
11,O=[N+]([O-])c1ccc(/C=N/c2cccc(-c3nc4ccccc4s3)c2)cc1 [CBK293918],91.4
12,CN1CCN(CC(=O)C(C#N)c2ccccc2)CC1 (stereo not shown) [CBK269270],87.7
13,COc1ccccc1NC(CC(=O)c1ccccc1)C(=O)O (stereo not shown) [CBK287190],83.8
14,FC(F)(F)c1cccc(-c2nccnc2NCCCN2CCOCC2)c1 [CBK037288],97.6
15,CC1CN(c2cc(CNCc3cnn4ccccc34)ccn2)CCO1 (stereo not shown) [CBK304018],84.1
16,Cc1ccc(C(=O)NC2CCCCC2)c(N2CCOCC2)n1 [CBK076388],96.5
17,NC(=O)C1CCN(C(=O)C2=NN(c3ccccc3)C(c3ccccc3)C2)CC1 (stereo not shown) [CBK296760],99.1
18,Oc1ccccc1-c1cc(-c2ccccc2)c2c(ccc3ncccc32)n1 [CBK261276],91.9
19,Cc1ccc2nc(-c3ccncc3)cc(C(=O)N3CCN(C4CCCCC4)CC3)c2c1 [CBK267736],96.4
20,CN(C)c1ccc(-c2nnc([C@H]3CCN(C(=O)CCC(=O)O)C3)o2)cc1 [CBK289408],119
21,Cc1cccc(-c2ncc(NC(=O)Cc3ccc(OC(F)(F)F)cc3)nc2-c2cccnc2)c1 [CBK037030],89.2
22,Cn1c(=O)n(C)c2cc(CNCc3ccccn3)ccc21 [CBK288118],95.4

row,SMILES,"viability at 28.5 h, 10 µM [%]"
1,O=C1CC(N2CCN(c3ccccc3)CC2)C(=O)N1c1cccc2ccccc12 (stereo not shown) [CBK261263],92.8
2,Oc1ccc(SCCCCN2CCCCC2)cc1 [CBK033676],110
3,COc1cc(C2N(Cc3ccccc3)CCCN2Cc2ccccc2)c([N+](=O)[O-])cc1OC [CBK265224],88.2
4,CCc1nc2c(N3CCC(n4nc(C)cc4C)C3)ncnc2o1 (stereo not shown) [CBK306785],111
5,COC(=O)CNC(=O)c1ccncc1Br [CBK057760],101
6,Cc1cc(C)c(NC(=O)N(CCCO)Cc2ccncc2)c(Cl)c1 [CBK304406],87.3
7,CN(C)C(=O)c1ccc(-c2ccc3c(c2)COC(C2CCN(C(=O)Cc4ccc(C#N)cc4)CC2)O3)cc1 (stereo not shown) [CBK149760],107
8,Cc1ccc(OCC(=O)Nc2ccccc2CO)cc1 [CBK263600],88.7
9,O=C(c1cccnc1)N1CCN(Cc2ccc([N+](=O)[O-])cc2)CC1 [CBK263026],93.4
10,Cc1ccc(OCC(=O)N2CCN(C(=O)c3ccncc3)CC2)cc1 [CBK300480],92.3
11,O=C(/C=C/c1ccccc1)NC(=S)Nc1cccc(-c2nc3ncccc3o2)c1 [CBK263742],103
12,COC(C)CN(C)C(=O)c1nnn(-c2ccc3ncccc3c2)c1C (stereo not shown) [CBK304484],85.8
13,CCCc1ccc(S(=O)(=O)N2CCN(CC(=O)Nc3cc(C(C)C)no3)CC2)cc1 [CBK295629],114
14,CN(C(=O)CSc1nc2ccccc2nc1Cc1ccc(Cl)cc1)C1CCCCC1 [CBK294411],104
15,Cc1ccc2nc(NC(=O)C3COc4ccccc4O3)sc2c1 (stereo not shown) [CBK287366],103
16,Cc1occc1-c1nnc(SCC(=O)c2ccc3c(c2)OCCO3)o1 [CBK268773],83.5
17,COc1ccc(/C(C#N)=C/c2ccc(-c3ccc(C(=O)O)cc3)o2)cc1OC [CBK268953],108
18,CN(Cc1ccccc1)c1nccnc1-c1ccccc1Cl [CBK037502],103
19,O=C1NCCNC(=O)C2(C/C=C/COc3ccccc31)CCCN(C(=O)c1cnco1)C2 (stereo not shown) [CBK291993],106
20,CC(C)OC(=O)c1cccnc1N1CCN(CCCC(c2ccc(F)cc2)c2ccc(F)cc2)CC1 [CBK025340C],103
21,O=C1NC=CCC12CCCN(S(=O)(=O)c1ccc(F)cc1)C2 (stereo not shown) [CBK284797],93.5
22,C=CCOc1ccc2ccccc2c1CNc1nc[nH]n1 [CBK267296],87.9

row,SMILES,"viability at 28.5 h, 10 µM [%]"
1,Cc1nc(N2CCCCC2)ncc1C(=O)NCCc1cc[nH]n1 [CBK307035],113
2,COc1cccc(CN2CCN(C(=O)N3CCCC3)[C@@H](C)C2)c1 [CBK285491],107
3,CCOC(=O)c1cccc(-c2ccc(OC)c(OC)c2)n1 [CBK149247],95.4
4,O=C(CSc1nnc(-c2ccco2)o1)Nc1cccc2nsnc12 [CBK268006],93.2
5,CC(=O)Nc1ccc(S(=O)(=O)N2CCC(n3c(=O)[nH]c4ccccc43)CC2)cc1 [CBK149696],92.3
6,Cn1nc(NC(=O)CN2CCOC2=O)c2c(N3CCOCC3)cccc21 [CBK306830],102
7,O=C(NC(c1ccccc1)c1ccco1)C1CCN(C(=S)NCCc2ccccc2)CC1 (stereo not shown) [CBK060412],94.4
8,CC(=O)Nc1ccc(-c2cncc(Nc3ccc(C#N)cc3)n2)cc1 [CBK066009],97.5
9,Cc1cc(NCC2CCCO2)n2nc(C)c(-c3ccccc3)c2n1 (stereo not shown) [CBK304531],90.5
10,O=C(O)CCCn1cc(NC(=O)c2cccs2)cn1 [CBK270122],88.1
11,Cc1ccc(S(=O)(=O)N2c3ccc(C(=O)O)cc3CC2C)cc1 (stereo not shown) [CBK286584],82.6
12,Cn1nccc1CCC(=O)N1CC[C@H]2NC(=O)c3ccccc3OCCCCC[C@H]2C1 [CBK292028],97.4
13,CCCCOc1ccc(S(=O)(=O)n2ccc3cc(N4CCNCC4)ccc32)cc1 [CBK001315C],37.9
14,NC(=O)Cn1cc(CN2CCC(c3ccccc3)C2)c2ccccc21 (stereo not shown) [CBK282803],92.3
15,O=S(=O)(c1ccccc1)n1c(CO)cc2c(C(F)(F)F)cc(CN3CCNCC3)cc21 [CBK143799],97.7
16,CCCNc1nc(O)cc(C(F)(F)F)n1 [CBK000214],95.8
17,CCCCc1ccc(N2C(=O)CC(Nc3ccc(C(=O)O)cc3)C2=O)cc1 (stereo not shown) [CBK296972],108
18,O=C(NCc1ccc(F)cc1)c1ccc(Cn2ccnc2)cc1 [CBK297719],96.3
19,COc1ccc(S(=O)(=O)Nc2nnc(C)s2)cc1 [CBK045543],114
20,Cc1ccccc1CN1CCCN(C(=O)CCNC(=O)c2ccco2)CC1 [CBK297718],103
21,O=C(NC1CC1)c1ccc(-n2cccn2)c(C#Cc2cccnc2)c1 [CBK282449],107
22,O=C(CN1C(=O)c2ccc(Br)cc2C1=O)OCc1ccc(S(=O)(=O)N2CCOCC2)cc1 [CBK267505],84.6

row,SMILES,"viability at 28.5 h, 10 µM [%]"
1,CC(C(=O)O)c1cc(C(=O)c2ccccc2)sc1-c1ccccc1 (stereo not shown) [CBK260968],91.3
2,CN1CCC(N(C)C(=O)Nc2ccc3[nH]ccc3c2)C1 (stereo not shown) [CBK156006],92.2
3,CN(Cc1ccc(-c2ccc(S(C)(=O)=O)cc2)nc1)C1CCN(C(=O)c2cc(Cl)ccc2Cl)CC1 [CBK165943T],84.5
4,O=C1NC2(CCN(C(=O)CC3c4ccccc4Oc4ccccc43)CC2)Nc2ccccc21 [CBK286307],98.8
5,COC(=O)c1csc2c1NC1(CCC1)[C@@H]1C[C@@H](O)[C@@H](O)[C@H]21 [CBK303255],119
6,Cc1cc(C)n(CC(O)CN(Cc2ccccc2)Cc2ccco2)n1 (stereo not shown) [CBK282957],95.7
7,Cc1cc(NC(=O)C(C)OC(=O)C(NC(=O)OC(C)(C)C)c2ccccc2)no1 (stereo not shown) [CBK170398],100
8,CC(=O)Nc1ccc(NC(=O)CCn2c(-c3cccc(C)c3)n[nH]c2=S)cc1Cl [CBK296656],99.3
9,Cc1nccn1CC(C)C(=O)NCCN(C)C1CCCCC1 (stereo not shown) [CBK282040],102
10,C[C@H]1CN2C[C@H](O)CC2CN1Cc1ccc(Br)s1 (stereo partly shown) [CBK285439],96.1
11,COc1ccc(C(=O)N(CCC#N)Cc2ccco2)cc1 [CBK304862],93.5
12,C[C@@H]1CNCCN1c1cc(C(F)(F)F)cc(OCc2ccccc2)n1 [CBK026755],79.1
13,Nc1ncc(-c2ccco2)nc1NC1CCOCC1 [CBK063806],102
14,O=C(c1nc(SCc2ccccc2)ncc1Cl)N1CCN(c2cccc(Cl)c2)CC1 [CBK268712],113
15,CN(CC(=O)Nc1cncc(OC2CCNCC2)n1)C(=O)c1ccccc1 [CBK028440T],105
16,Cc1cc(CN2CCN(c3nc(-c4ccccc4)nc4ccccc34)CC2)no1 [CBK296654],87.7
17,Cc1ccc(C2CCCN2C(=O)c2cccn(CC(=O)NC3CCCCC3)c2=O)cc1C (stereo not shown) [CBK286009],92.2
18,CC(C)NC(=O)N1CCC[C@@H](O)[C@H](NC(=O)c2ccc(OCc3ccccc3)cc2)C1 [CBK289063],106
19,CCc1cc(Br)ccc1S(=O)(=O)NCCC#N [CBK044760],91.9
20,CC(C)C(=O)Nc1cc2ccccc2c(-c2ccc(OCc3ccccc3)c(F)c2)n1 [CBK073783],89.8

# Same assay, conditions: human, hela cells, % viability, bulk resorufin, single well
row,SMILES,"viability at 28.5 h, 10 µM [%]"
1,CN1C(=O)CC(c2ccccc2)Nc2ccccc21 (stereo not shown) [CBK086373C],103
2,O=C1NC(=O)C(CCc2ccccn2)(Cc2ccc3c(c2)OCO3)C(=O)N1CCc1ccccc1 (stereo not shown) [CBK266392],98.7
